Data as given in patent US20240350643A1, “PROTEIN DEGRADATION AGENT” (SUZHOU KINTOR PHARMACEUTICALS, INC., priority 2021, published 2024).
Where two headings read alike, the source gives them in different places.

Key:
c-Myc protein = target: T1, c-Myc protein (Homo sapiens, UniProt P01106); experiment: Ability of compounds to degrade c-Myc protein in HL60 cells (ELISA); assay type: cell-based; conditions: HL-60, 1 μM compound, 24 h, read-out: HL60 cells Protein degradation rate (1 μM)
T1 construct: endogenous in cells; host or cells: HL60 cells
Procedure: I Activity test 1: Ability of compounds to degrade c-Myc protein in HL60 cells:
HL60 cells in the exponential growth phase were centrifuged, diluted with fresh culture mediums to 6×10^4 cells/100 μL and plated into a 96-well plate at 100 μL per well.
Preparation of test compounds: the compounds were weighed and diluted with DMSO to a 10 mM stock solution for later use. According to test requirements, drugs were diluted with cell culture mediums, with ten-fold dilutions starting from 10 μM, to achieve 3 concentration gradients: 10 μM, 1 μM and 100 NM; and finally, 1 μL of the drugs (DMSO content: 0.01%) were added to each well. For the blank control group, DMSO was also diluted with cell culture mediums, and finally, 1 μL of the control reagent (DMSO content: 0.01%) was added to each well.
3. Effect of drugs on c-Myc in cells as determined by ELISA
After 24 h of drug action, the culture mediums were removed, and the cells were washed once with ice-cold 1× PBS. PBS was removed, and 100 μL of ice-cold 1× Cell Lysis Buffer plus 1 mM phenylmethylsulfonyl fluoride (PMSF) was added to each well. The plate was incubated on ice for 20 min and centrifuged at 4000 RPM at 4° C. for 10 min for later use.
4. Reagent and antibody preparation in ELISA kit 1× wash buffer • 1). 16 mL of ELISA wash buffer concentrate (25×) was diluted with 384 mL of deionized water or distilled water, labeled as 1× Wash Buffer. • 2). The concentrate and 1× Wash Buffer were stored in the refrigerator. The diluted buffer was used within 14 days.
The cell extraction buffer contains 10 mM Tris (pH 7.4), 100 mM NaCl, 1 mM EDTA, 1 mM EGTA, 1 mM NaF, 20 mM Na4P2O7 2 mM Na3VO4. 1% Triton™ ×-100, 10% glycerol, 0.1% SDS and 0.5% deoxycholate. Immediately before use, PMSF (0.3 M stock solution in DMSO) was added to the buffer to a final concentration of 1 mM.
Standard curve configuration: The standard liquid was diluted using glass or plastic tubes. • 1). Huc-Myc (total) standard liquid (Invitrogen, KH02041) was reconstituted with a standard dilution to 1000 pg/mL. Refer to the standard vial label for instructions. The contents were gently swirled or mixed and then allowed to stand for 10 minutes to ensure complete reconstitution, labeled as 1,000 pg/mL human c-Myc. The standard liquid was used within 1 hour after reconstitution. • 2). 250 μL of standard dilution buffers were added to 7 test tubes respectively labeled 500, 250, 125, 62.5, 31.25, 15,63 and 0 pg/mL. • 3). 250 μL of the 1000 pg/ml standard stock solution was added to the first EP tube to a concentration of 500 pg/mL, vortexed and mixed evenly. 250 μL of the resulting mixture was further pipetted and added to the second EP tube to a concentration of 250 pg/mL. Serial dilutions were performed until the sixth EP tube with a concentration of 15.63 pg/mL. Dilution was not performed on the last EP tube. • 4). The remaining reconstituted standard liquid should be discarded, or aliquoted and frozen at −80° C. for further use. Standards can be frozen and thawed only once without losing immunoreactivity.
1× anti-rabbit IgG HRP solution: 1× anti-rabbit IgG HRP solution was prepared within 15 minutes of use. The anti-rabbit IgG HRP (100×) contained 50% viscous glycerol. To ensure accurate dilutions, the following operations were carried out: 1 For each 8-well test strip used in the test, 10 μl, of the anti-rabbit IgG -IRP (100×) solution was pipetted, wherein the pipette tip was wiped with clean absorbent paper to remove excess solutions, and then the solution was dispensed into a test tube containing 1 mL of HRP diluent and mixed thoroughly. 2. The unused anti-rabbit IgG HRP (100×) was placed in the refrigerator for storage.
50 μL of the standard liquid was added to the appropriate wells and not added to the blank control well. Except for the blank control well, 50 μL of Hu c-Myc (total) detection antibody solution was added to each well and mixed by tapping the side face of the plate. […]

HL60 cells = experiment: Anti-proliferation ability of compounds on HL60 cells (CTG); assay type: cell-based, human; conditions: 3 days, CellTiter-Glo, read-out: HL60 cells Proliferation inhibitory activity
Procedure: II. Activity test 2: Anti-proliferation ability of compounds on HL60 cells: 1 Cell plating
HL60 cells in the logarithmic growth phase were counted and plated evenly in a 96-well transparent bottom white plate at 20000 cells per well and 100 μL per well.
A certain amount of the compounds was weighed and diluted with DMSO to a 10 mM stock solution. The culture mediums corresponding to the cells were taken, and the drugs were diluted to the concentration required by the test, shaken gently and mixed evenly. 50 μl of the gradient dilution of the diluted compound was added to each well of the plated cells, and 50 μL of 0.1% DMSO was added to the control group. The plate was shaken gently, mixed evenly and incubated in a cell culture incubator for 3 days.
• 3.1 The CellTiter-GLo™ (CTG) reagent was taken in advance from the −20° C. refrigerator and equilibrated to room temperature in the dark (white bottle+brown bottle, 1:1 mixing evenly into the brown bottle, for later use). • 3.2 The 96-well plate was taken out and inspected under a microscope for growth situation. • 3.3 The bottom of the 96-well plate was tagged with white paper, and then the plate was wrapped with tin foil paper, shaken at 37° C. at 300 r for 10 min and mixed evenly. • 3.4 50 ul of CTG detection reagent was added to each well, Luminescence signal was detected using a microplate reader, and the inhibition rate was calculated. IC50 values of the compounds were calculated by XLfit software to evaluate the proliferation inhibitory activity on HL60 cells.

T1 sequence (P01106 whole entry): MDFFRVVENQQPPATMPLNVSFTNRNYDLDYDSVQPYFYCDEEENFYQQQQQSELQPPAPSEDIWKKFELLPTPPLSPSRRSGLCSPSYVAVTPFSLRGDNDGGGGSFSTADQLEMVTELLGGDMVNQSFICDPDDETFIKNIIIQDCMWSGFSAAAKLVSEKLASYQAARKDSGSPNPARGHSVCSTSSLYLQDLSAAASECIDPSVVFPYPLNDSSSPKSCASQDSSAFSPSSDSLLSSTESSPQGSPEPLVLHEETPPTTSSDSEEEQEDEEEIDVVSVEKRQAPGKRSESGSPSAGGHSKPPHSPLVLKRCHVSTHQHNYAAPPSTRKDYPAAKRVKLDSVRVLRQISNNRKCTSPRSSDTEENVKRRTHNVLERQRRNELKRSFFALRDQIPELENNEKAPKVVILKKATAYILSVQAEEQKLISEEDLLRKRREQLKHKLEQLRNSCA

inhibition at 1 µM (c-Myc protein)	IC50 (HL60 cells; Homo sapiens, HL-60, 72 h)	IC50 (HL60 cells)	SMILES
30 to 60%	335 ± 83.1 nM		O=C(Cn1c2ccccc2c2ccccc21)NCCCCCCNC(=O)c1ccc2c(c1)C(=O)N(C1CCC(=O)NC1=O)C2=O (centres unmarked) [A1]
30 to 60%	50.7 ± 11.4 nM		O=C(Cn1c2ccccc2c2cccnc21)NCCCCCCNC(=O)c1ccc2c(c1)C(=O)N(C1CCC(=O)NC1=O)C2=O (centres unmarked) [A2]
30 to 60%			O=C(Cn1c2ccccc2c2ccncc21)NCCCCCCNC(=O)c1ccc2c(c1)C(=O)N(C1CCC(=O)NC1=O)C2=O (centres unmarked) [A3]
10 to 30%	221 ± 54.5 nM		O=C(Cn1c2ncccc2c2cccnc21)NCCCCCCNC(=O)c1ccc2c(c1)C(=O)N(C1CCC(=O)NC1=O)C2=O (centres unmarked) [A4]
30 to 60%	391 ± 4.7 nM		O=C(CN(c1ccccc1)c1ccccc1)NCCCCCCNC(=O)c1ccc2c(c1)C(=O)N(C1CCC(=O)NC1=O)C2=O (centres unmarked) [A5]
30 to 60%	320 ± 38 nM		O=C(CN1c2ccccc2Oc2ccccc21)NCCCCCCNC(=O)c1ccc2c(c1)C(=O)N(C1CCC(=O)NC1=O)C2=O (centres unmarked) [A7]
30 to 60%	69.8 ± 8.8 nM		O=C(Cc1cccc2ccccc12)NCCCCCCNC(=O)c1ccc2c(c1)C(=O)N(C1CCC(=O)NC1=O)C2=O (centres unmarked) [A8]
30 to 60%	570 ± 38 nM		O=C(Cc1ccc2ccccc2c1)NCCCCCCNC(=O)c1ccc2c(c1)C(=O)N(C1CCC(=O)NC1=O)C2=O (centres unmarked) [A9]
10 to 30%	1213 ± 4 nM		O=C1CCC(N2C(=O)c3ccc(C(=O)NCCCCCCNC(=O)NC4c5ccccc5-c5ccccc54)cc3C2=O)C(=O)N1 (centres unmarked) [A10]
10 to 30%	1240 ± 490 nM		O=C(CC1c2ccccc2-c2ccccc21)NCCCCCCNC(=O)c1ccc2c(c1)C(=O)N(C1CCC(=O)NC1=O)C2=O (centres unmarked) [A11]
30 to 60%	1060 ± 62 nM		O=C1CCC(N2C(=O)c3ccc(C(=O)NCCCCCCNC(=O)n4c5ccccc5c5ccccc54)cc3C2=O)C(=O)N1 (centres unmarked) [A12]
10 to 30%	1270 ± 51 nM		O=C(CCn1c2ccccc2c2ccccc21)NCCCCCCNC(=O)c1ccc2c(c1)C(=O)N(C1CCC(=O)NC1=O)C2=O (centres unmarked) [A13]
30 to 60%	226 ± 72 nM		O=C(Cn1c2ccccc2c2ccccc21)NCCCCCCCCNC(=O)c1ccc2c(c1)C(=O)N(C1CCC(=O)NC1=O)C2=O (centres unmarked) [A14]
	17.8 ± 1.9 nM		O=C1CCC(N2Cc3cc(C(=O)NC[C@H]4CC[C@H](NC(=O)NCc5cccc6ccccc56)CC4)ccc3C2=O)C(=O)N1 (some centres unmarked) [A198]
	6.4 ± 2.7 nM		O=C(CN1CCCc2cccnc21)NCc1ccc(CNC(=O)c2ccc3c(c2)CN(C2CCC(=O)NC2=O)C3=O)cc1 (centres unmarked) [A202]
	0.5 ± 0.2 nM		CN(CCn1c2ccccc2c2cccnc21)Cc1ccc(CC(=O)Nc2ccc3c(c2)CN(C2CCC(=O)NC2=O)C3=O)cc1 (centres unmarked) [A206]
	0.2 nM		O=C(Cn1c2ccccc2c2cccnc21)NCc1ccc(CNC(=O)c2ccc3c(c2)CN(C2CCC(=O)NC2=O)C3=O)c(OC(F)(F)F)c1 (centres unmarked) [A207]
		0.9 nM	O=C(Cn1c2ccccc2c2cccnc21)NCc1ccc(CNC(=O)c2ccc3c(c2)CN(C2CCC(=O)NC2=O)C3=O)c(C(F)(F)F)c1 (centres unmarked) [A209]
	3.6 ± 1.8 nM		N#Cc1cc(CNC(=O)Cn2c3ccccc3c3cccnc32)ccc1CNC(=O)c1ccc2c(c1)CN(C1CCC(=O)NC1=O)C2=O (centres unmarked) [A210]

inhibition at 1 µM (c-Myc protein)	IC50 (HL60 cells; Homo sapiens, HL-60, 72 h)	IC50 (HL60 cells)	SMILES
	13.3 ± 1 nM		N#Cc1cc(CNC(=O)Cn2c3ccccc3c3cccnc32)ccc1CC(=O)Nc1ccc2c(c1)CN(C1CCC(=O)NC1=O)C2=O (centres unmarked) [A211]
	1.5 ± 0.1 nM		O=C1CCC(N2Cc3cc(C(=O)NCc4ccc(C5(NC(=O)Cn6c7ccccc7c7cccnc76)CC5)cc4)ccc3C2=O)C(=O)N1 (centres unmarked) [A212]
	5.4 ± 1.9 nM		O=C(Cn1c2ccccc2c2cccnc21)NCc1ccc(C2(NC(=O)c3ccc4c(c3)CN(C3CCC(=O)NC3=O)C4=O)CC2)cc1 (centres unmarked) [A213]
	5.2 ± 1.4 nM		O=C1CCC(N2Cc3cc(C(=O)NCc4ccc(C5(NC(=O)Cn6c7ccccc7c7cccnc76)CC5)cn4)ccc3C2=O)C(=O)N1 (centres unmarked) [A214]
	186 ± 67 nM		O=C(Cn1c2ccccc2c2cccnc21)NCc1ccc(C2(NC(=O)c3ccc4c(c3)CN(C3CCC(=O)NC3=O)C4=O)CC2)cn1 (centres unmarked) [A215]
	3.5 ± 1.1 nM		O=C(Cn1c2ccccc2c2cccnc21)NCc1ccc(C2(NC(=O)c3ccc4c(c3)CN(C3CCC(=O)NC3=O)C4=O)CC2)cc1F (centres unmarked) [A216]
	0.6 nM		Cc1cc(CNC(=O)Cn2c3ccccc3c3cccnc32)ccc1CNC(=O)c1ccc2c(c1)CN(C1CCC(=O)NC1=O)C2=O (centres unmarked) [A217]
	3.3 ± 0.8 nM		O=C(Cn1c2ccccc2c2cccnc21)NCc1ccc(CC(=O)Nc2ccc3c(c2F)CN(C2CCC(=O)NC2=O)C3=O)c(C(F)(F)F)c1 (centres unmarked) [A218]
	7.8 ± 2 nM		O=C(Cn1c2ccccc2c2cccnc21)NCc1ccc(CC(=O)Nc2cc3c(cc2F)C(=O)N(C2CCC(=O)NC2=O)C3)c(C(F)(F)F)c1 (centres unmarked) [A219]
	0.6 ± 0.2 nM		O=C(Cn1c2ccccc2c2cccnc21)NCc1ccc(CNC(=O)c2cc3c(cc2F)C(=O)N(C2CCC(=O)NC2=O)C3)cc1 (centres unmarked) [A222]
	0.7 ± 0.4 nM		O=C(Cn1c2ccccc2c2cccnc21)NCc1ccc(CNC(=O)c2ccc3c(c2F)CN(C2CCC(=O)NC2=O)C3=O)cc1 (centres unmarked) [A223]
	1 nM		CC(C)(C)C(=O)OCN1C(=O)CCC(N2Cc3cc(C(=O)NCc4ccc(CNC(=O)Cn5c6ccccc6c6cccnc65)cc4)ccc3C2=O)C1=O (centres unmarked) [A226]
	< 3.04 nM		N#Cc1cccc2c3ccccc3n(CC(=O)NCc3ccc(CNC(=O)c4ccc5c(c4)CN(C4CCC(=O)NC4=O)C5=O)cc3)c12 (centres unmarked) [A229]
	11.8 ± 1.2 nM		O=C1CCC(N2Cc3cc(C(=O)NCc4ccc(CN(CCc5cccc6ccccc56)CCc5cccc6ccccc56)cc4)ccc3C2=O)C(=O)N1 (centres unmarked) [A230]
	< 3.04 nM		O=C1CCC(N2Cc3cc(C(=O)NCc4ccc(CNCCc5cccc6ccccc56)cc4)ccc3C2=O)C(=O)N1 (centres unmarked) [A231]
	0.54 nM		O=C1CCC(N2Cc3cc(C(=O)NCc4ccc(CN(CCc5cccc6ccccc56)C(=O)CO)cc4)ccc3C2=O)C(=O)N1 (centres unmarked) [A232]
	< 3.04 nM		O=C1CCC(N2Cc3cc(C(=O)NCc4ccc(CN(CCO)CCc5ccc(Cl)c(Cl)c5)cc4)ccc3C2=O)C(=O)N1 (centres unmarked) [A233]
	0.71 ± 0.04 nM		O=C1CCC(N2Cc3cc(C(=O)NCc4ccc(CN(CCO)CCc5cccc6ccccc56)cc4)ccc3C2=O)C(=O)N1 (centres unmarked) [A234]
	6.3 ± 1.2 nM		O=C(Cn1c2ccccc2c2cccc(CO)c21)NCc1ccc(CNC(=O)c2ccc3c(c2)C(=O)N(C2CCC(=O)NC2=O)C3=O)cc1 (centres unmarked) [A236]
